*1 amine or outer side, *2 acyl side, *3 side chain or, on linkers, in order; H or OH if unused. Where a SMILES comes first, the peptide text is derived from it. Bridges are numbered along the chain shown (N, C = ends). [ ]: non-standard residue; d: D form. The star is where a group is joined. ξ: configuration not given here. X14 = CC(C)[C@H](CC(=O)[C@H](Cc1ccccc1)N(C)[*:1])C(=O)[*:2]; NMePhe(3-Cl) = CN[C@@H](Cc1cccc(Cl)c1)C(=O)O; NMeF = CN[C@@H](Cc1ccccc1)C(=O)O; NMeGABA = CN(CCCC(=O)[*:2])[*:1]; NMeI = CC[C@H](C)[C@H](NC)C(=O)O; NMeL = CN[C@@H](CC(C)C)C(=O)O; Propyl(2R-OH) = C[C@@H](O)C*; Butyl(3S-OH) = C[C@H](O)CC*; NMeV = CN[C@H](C(=O)O)C(C)C; NMeA = CN[C@@H](C)C(=O)O; Piperidide = C1CCN(*)CC1; NBuGly = CCCCNCC(=O)O; Propyl(3-OH) = OCCC*; ξS = NC(CO)C(=O)O; Sar = CNCC(=O)O; tBu = CC(C)(C)*
Test: in vitro
Conditions: human, Caco-2, Caco-2 (cm/sec)

SMILES	Papp [×10⁻⁶ cm/s]
CC(C)C[C@@H]1NC(=O)[C@H](Cc2ccccc2)N(C)C(=O)[C@@H](CC(C)C)NC(=O)C[C@@H](C(=O)N2CCCCC2)NC(=O)[C@H](CC(C)C)N(C)C(=O)[C@H](Cc2ccccc2)N(C)C(=O)[C@H](COC(C)(C)C)NC(=O)[C@H](CC(C)C)N(C)C(=O)CN(C)C(=O)[C@H](COC[C@@H](C)O)NC(=O)[C@H](CC(C)C)N(C)C1=O [AP81] ([dL][NMeF]L[NMeL]S(Propyl(2R-OH))[Sar][NMeL]S(tBu)[NMeF][NMeL]D-Piperidide; lactam N-11)	0.69
CC(C)C[C@H]1C(=O)N[C@@H](C(C)C)C(=O)N(C)[C@@H](Cc2ccccc2)C(=O)N(C)[C@@H](Cc2ccccc2)C(=O)N[C@@H](COC(C)(C)C)C(=O)N(C)[C@@H](CC(C)C)C(=O)N[C@@H](COC[C@@H](C)O)C(=O)N(C)[C@@H](CC(C)C)C(=O)N(C)[C@@H](CC(C)C)C(=O)N[C@H](C(=O)N2CCCCC2)CC(=O)N(C)CCCC(=O)N1C [AP83] ([NMeGABA][NMeL]V[NMeF][NMeF]S(tBu)[NMeL]S(Propyl(2R-OH))[NMeL][NMeL]D-Piperidide; lactam N-11)	1.3
CC[C@H](C)[C@H]1C(=O)N[C@@H](COC[C@@H](C)O)C(=O)N(C)CC(=O)N(C)[C@@H](CC(C)C)C(=O)N[C@H](C(=O)N2CCCCC2)CC(=O)N(C)[C@@H](C)C(=O)N[C@@H](CC(C)C)C(=O)N(C)[C@@H](CC(C)C)C(=O)N(C)[C@@H](Cc2ccccc2)C(=O)N[C@@H](CC(C)C)C(=O)N(C)[C@@H](Cc2ccccc2)C(=O)N1C [AP85] ([NMeA]L[NMeL][NMeF]L[NMeF][NMeI]S(Propyl(2R-OH))[Sar][NMeL]D-Piperidide; lactam N-11)	5.2
CC[C@H](C)[C@H]1C(=O)N[C@@H](C(C)C)C(=O)N(C)CC(=O)N(C)[C@@H](CC(C)C)C(=O)N[C@H](C(=O)N2CCCCC2)CC(=O)N(C)[C@@H](C)C(=O)N[C@@H](COC[C@@H](C)O)C(=O)N(C)[C@@H](CC(C)C)C(=O)N(C)[C@@H](Cc2ccccc2)C(=O)N[C@@H](CC(C)C)C(=O)N(C)[C@@H](Cc2ccccc2)C(=O)N1C [AP86] ([NMeA]S(Propyl(2R-OH))[NMeL][NMeF]L[NMeF][NMeI]V[Sar][NMeL]D-Piperidide; lactam N-11)	3.7
CCCCN1CC(=O)N(C)[C@@H](Cc2ccccc2)C(=O)N(C)[C@@H](CC(C)C)C(=O)N[C@@H](COC(C)(C)C)C(=O)N(C)[C@@H](CC(C)C)C(=O)N[C@H](C(=O)N2CCCCC2)CC(=O)N(C)CC(=O)N(C)[C@@H](Cc2ccccc2)C(=O)N[C@@H](C(C)C)C(=O)N(C)[C@@H](CC(C)C)C(=O)N[C@@H](COC[C@@H](C)O)C1=O [AP87] ([Sar][NMeF]V[NMeL]S(Propyl(2R-OH))[NBuGly][NMeF][NMeL]S(tBu)[NMeL]D-Piperidide; lactam N-11)	1
CC[C@H](C)[C@@H]1NC(=O)[C@H](CC(C)C)N(C)C(=O)[C@H](COC[C@@H](C)O)NC(=O)[C@H](Cc2ccccc2)N(C)C(=O)CN(C)C(=O)C[C@@H](C(=O)N2CCCCC2)NC(=O)[C@H](CC(C)C)N(C)C(=O)[C@H](COC(C)(C)C)NC(=O)[C@H](CC(C)C)N(C)C(=O)[C@H](Cc2ccccc2)N(C)C(=O)CN(C)C1=O [AP88] ([Sar][NMeF]S(Propyl(2R-OH))[NMeL]I[Sar][NMeF][NMeL]S(tBu)[NMeL]D-Piperidide; lactam N-11)	3.3
CCCCN1CC(=O)N(C)[C@@H](CC(C)C)C(=O)N[C@@H](COC(C)(C)C)C(=O)N(C)[C@@H](Cc2ccccc2)C(=O)N(C)[C@@H](CC(C)C)C(=O)N[C@H](C(=O)N2CCCCC2)CC(=O)N[C@H](CC(C)C)C(=O)N(C)[C@@H](Cc2ccccc2)C(=O)N[C@@H](COCCCO)C(=O)N(C)[C@@H](CC(C)C)C(=O)N[C@@H]([C@@H](C)O)C1=O [AP89] ([dL][NMeF]S(Propyl(3-OH))[NMeL]T[NBuGly][NMeL]S(tBu)[NMeF][NMeL]D-Piperidide; lactam N-11)	0.12
CC(C)C[C@@H]1NC(=O)[C@H](Cc2ccccc2)N(C)C(=O)[C@@H](C(C)C)NC(=O)C[C@@H](C(=O)N2CCCCC2)NC(=O)[C@H](CC(C)C)N(C)C(=O)[C@H](Cc2cccc(Cl)c2)N(C)C(=O)[C@H](COCCCO)NC(=O)[C@H](CC(C)C)N(C)C(=O)CN(C)C(=O)[C@H]([C@@H](C)O)NC(=O)[C@H](CC(C)C)N(C)C1=O [AP90] ([dV][NMeF]L[NMeL]T[Sar][NMeL]S(Propyl(3-OH))[NMePhe(3-Cl)][NMeL]D-Piperidide; lactam N-11)	3.3
CC(C)C[C@@H]1NC(=O)[C@H](Cc2cccc(Cl)c2)N(C)C(=O)[C@H](Cc2ccccc2)N(C)C(=O)[C@H](COCCCO)NC(=O)[C@H](CC(C)C)N(C)C(=O)CCCN(C)C(=O)C[C@@H](C(=O)N2CCCCC2)NC(=O)[C@H](CC(C)C)N(C)C(=O)[C@H](CC(C)C)N(C)C(=O)[C@H]([C@@H](C)O)NC(=O)[C@H](CC(C)C)N(C)C1=O [AP91] ([NMeGABA][NMeL]S(Propyl(3-OH))[NMeF][NMePhe(3-Cl)]L[NMeL]T[NMeL][NMeL]D-Piperidide; lactam N-11)	0.14
CC[C@H](C)[C@@H]1NC(=O)[C@H](CC(C)C)N(C)C(=O)CCCN(C)C(=O)C[C@@H](C(=O)N2CCCCC2)NC(=O)[C@H](CC(C)C)N(C)C(=O)[C@H](CC(C)C)N(C)C(=O)[C@H]([C@@H](C)O)NC(=O)[C@H](CC(C)C)N(C)C(=O)[C@H](COCCCO)NC(=O)[C@H](Cc2cccc(Cl)c2)N(C)C(=O)[C@H](Cc2ccccc2)N(C)C1=O [AP92] ([NMeGABA][NMeL]I[NMeF][NMePhe(3-Cl)]S(Propyl(3-OH))[NMeL]T[NMeL][NMeL]D-Piperidide; lactam N-11)	0.18
CCCCN1CC(=O)N(C)[C@@H](CC(C)C)C(=O)N[C@H](C(=O)N2CCCCC2)CC(=O)N(C)[C@@H](C(C)C)C(=O)N[C@@H](COCCCO)C(=O)N(C)[C@@H](CC(C)C)C(=O)N(C)[C@@H](Cc2ccccc2)C(=O)C[C@@H](C(C)C)C(=O)N(C)[C@@H](Cc2ccccc2)C(=O)N(C)[C@@H](CC(C)C)C(=O)N[C@@H]([C@@H](C)O)C1=O [AP93] ([NMeV]S(Propyl(3-OH))[NMeL][X14][NMeF][NMeL]T[NBuGly][NMeL]D-Piperidide; lactam N-10)	1.1
CC(C)C[C@@H]1NC(=O)[C@H](CC(C)C)N(C)C(=O)C[C@@H](C(=O)N2CCCCC2)NC(=O)[C@H](CC(C)C)N(C)C(=O)CN(C)C(=O)[C@H]([C@@H](C)O)NC(=O)[C@H](CC(C)C)N(C)C(=O)[C@H](Cc2ccccc2)N(C)C(=O)[C@H](COCCCO)NC(=O)[C@H](Cc2ccccc2)N(C)C(=O)[C@H](CC(C)C)N(C)C1=O [AP94] ([NMeL]L[NMeL][NMeF]S(Propyl(3-OH))[NMeF][NMeL]T[Sar][NMeL]D-Piperidide; lactam N-11)	0.35
CCCCN1CC(=O)N(C)[C@@H](Cc2ccccc2)C(=O)N[C@@H](COCCCO)C(=O)N(C)[C@@H](CC(C)C)C(=O)N[C@@H]([C@@H](C)O)C(=O)N(CCCC)CC(=O)N(C)[C@@H](Cc2ccccc2)C(=O)N(C)[C@@H](C(C)C)C(=O)N[C@@H](COC(C)(C)C)C(=O)N(C)[C@@H](CC(C)C)C(=O)N[C@H](C(=O)N2CCCCC2)CC1=O [AP95] ([NBuGly][NMeF]S(Propyl(3-OH))[NMeL]T[NBuGly][NMeF][NMeV]S(tBu)[NMeL]D-Piperidide; lactam N-11)	0.69
CCCCN1CC(=O)N(C)[C@@H](Cc2cccc(Cl)c2)C(=O)N(C)[C@@H](CC(C)C)C(=O)N[C@@H](COCCCO)C(=O)N(C)[C@@H](CC(C)C)C(=O)N[C@H](C(=O)N2CCCCC2)CC(=O)N(C)CC(=O)N(C)[C@@H](Cc2ccccc2)C(=O)N[C@@H]([C@@H](C)CC)C(=O)N(C)[C@@H](CC(C)C)C(=O)N[C@@H]([C@@H](C)O)C1=O [AP96] ([Sar][NMeF]I[NMeL]T[NBuGly][NMePhe(3-Cl)][NMeL]S(Propyl(3-OH))[NMeL]D-Piperidide; lactam N-11)	0.17
CCCCN1CC(=O)N(C)[C@@H](CC(C)C)C(=O)N[C@@H](COCCCO)C(=O)N(C)[C@@H](Cc2cccc(Cl)c2)C(=O)N(C)[C@@H](CC(C)C)C(=O)N[C@H](C(=O)N2CCCCC2)CC(=O)N[C@H](C(C)C)C(=O)N(C)[C@@H](Cc2ccccc2)C(=O)N[C@@H](CC(C)C)C(=O)N(C)[C@@H](CC(C)C)C(=O)N[C@@H]([C@@H](C)O)C1=O [AP98] ([dV][NMeF]L[NMeL]T[NBuGly][NMeL]S(Propyl(3-OH))[NMePhe(3-Cl)][NMeL]D-Piperidide; lactam N-11)	0.16
CCCCN1CC(=O)N(C)[C@@H](C(C)C)C(=O)N[C@@H](COC(C)(C)C)C(=O)N(C)[C@@H](Cc2ccccc2)C(=O)N(C)[C@@H](CC(C)C)C(=O)N[C@H](C(=O)N2CCCCC2)CC(=O)N[C@H](C(C)C)C(=O)N(C)[C@@H](Cc2ccccc2)C(=O)N[C@@H](COCC[C@H](C)O)C(=O)N(C)[C@@H](CC(C)C)C(=O)N[C@@H]([C@@H](C)O)C1=O [AP99] ([dV][NMeF]S(Butyl(3S-OH))[NMeL]T[NBuGly][NMeV]S(tBu)[NMeF][NMeL]D-Piperidide; lactam N-11)	0.86
CC(C)C[C@@H]1NC(=O)[C@H](Cc2ccccc2)N(C)C(=O)[C@@H](C(C)C)NC(=O)C[C@@H](C(=O)N2CCCCC2)NC(=O)[C@H](CC(C)C)N(C)C(=O)[C@H](Cc2cccc(Cl)c2)N(C)C(=O)[C@H](COCC[C@H](C)O)NC(=O)[C@H](CC(C)C)N(C)C(=O)CN(C)C(=O)[C@H]([C@@H](C)O)NC(=O)[C@H](CC(C)C)N(C)C1=O [AP100] ([dV][NMeF]L[NMeL]T[Sar][NMeL]S(Butyl(3S-OH))[NMePhe(3-Cl)][NMeL]D-Piperidide; lactam N-11)	0.55
CC(C)C[C@H]1C(=O)N[C@@H]([C@@H](C)O)C(=O)N(C)[C@@H](CC(C)C)C(=O)N(C)[C@@H](CC(C)C)C(=O)N[C@H](C(=O)N2CCCCC2)CC(=O)N(C)CCCC(=O)N(C)[C@@H](C(C)C)C(=O)NC(COCC[C@H](C)O)C(=O)N(C)[C@@H](Cc2ccccc2)C(=O)N(C)[C@@H](Cc2cccc(Cl)c2)C(=O)N[C@@H](COC(C)(C)C)C(=O)N1C (stereo partly drawn) [AP101] ([NMeGABA][NMeV][ξS](Butyl(3S-OH))[NMeF][NMePhe(3-Cl)]S(tBu)[NMeL]T[NMeL][NMeL]D-Piperidide; lactam N-11)	0.59
CC(C)C[C@H]1C(=O)N[C@@H](C(C)C)C(=O)N(C)[C@@H](Cc2ccccc2)C(=O)N(C)[C@@H](Cc2cccc(Cl)c2)C(=O)NC(COCC[C@H](C)O)C(=O)N(C)[C@@H](CC(C)C)C(=O)N[C@@H]([C@@H](C)O)C(=O)N(C)[C@@H](CC(C)C)C(=O)N(C)[C@@H](CC(C)C)C(=O)N[C@H](C(=O)N2CCCCC2)CC(=O)N(C)CCCC(=O)N1C (stereo partly drawn) [AP102] ([NMeGABA][NMeL]V[NMeF][NMePhe(3-Cl)][ξS](Butyl(3S-OH))[NMeL]T[NMeL][NMeL]D-Piperidide; lactam N-11)	0.43

Source: US20230096766A1, “AMINO ACID HAVING FUNCTIONAL GROUP CAPABLE OF INTERMOLECULAR HYDROGEN BONDING, PEPTIDE COMPOUND CONTAINING SAME AND METHOD FOR PRODUCTION THEREOF” (Chugai Seiyaku Kabushiki Kaisha, priority 2018, published 2023)
